Holding throughout (format): cell-based
For experiment [1], the target named is T1, P2Y13 receptor (Rattus norvegicus, UniProt Q6GUG4).
T1 sequence (Q6GUG4 1-336): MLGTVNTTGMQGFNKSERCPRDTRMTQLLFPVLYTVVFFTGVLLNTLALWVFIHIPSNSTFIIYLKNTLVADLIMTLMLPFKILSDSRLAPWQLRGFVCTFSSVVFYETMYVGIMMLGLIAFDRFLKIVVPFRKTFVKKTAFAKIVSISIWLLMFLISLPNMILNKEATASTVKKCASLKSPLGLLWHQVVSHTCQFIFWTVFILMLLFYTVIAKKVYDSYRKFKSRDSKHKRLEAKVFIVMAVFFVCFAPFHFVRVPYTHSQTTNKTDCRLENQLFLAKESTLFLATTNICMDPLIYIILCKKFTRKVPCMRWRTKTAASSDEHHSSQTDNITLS

The target of experiment [2] is T2, P2Y1 receptor (Rattus norvegicus, UniProt P49651).
Experiment [3] concerns the target T2, P2Y1 receptor. The source holds these as a separate data set.
In experiment [4] the target is T2, P2Y1 receptor. In words: agonist-induced intracellular calcium mobilization in RBL-2H3 cells. On the technique in general: Calcium flux is commonly read through the fluorescence of an indicator in the cells.

Counter-ions that a name gives are not always drawn. Like-named read-outs stand apart in the source and are kept apart here.

The text below walks through data of article PMC2974784 (Pharmacological research : the official journal of the …, 2010).

T2 sequence (P49651 whole entry): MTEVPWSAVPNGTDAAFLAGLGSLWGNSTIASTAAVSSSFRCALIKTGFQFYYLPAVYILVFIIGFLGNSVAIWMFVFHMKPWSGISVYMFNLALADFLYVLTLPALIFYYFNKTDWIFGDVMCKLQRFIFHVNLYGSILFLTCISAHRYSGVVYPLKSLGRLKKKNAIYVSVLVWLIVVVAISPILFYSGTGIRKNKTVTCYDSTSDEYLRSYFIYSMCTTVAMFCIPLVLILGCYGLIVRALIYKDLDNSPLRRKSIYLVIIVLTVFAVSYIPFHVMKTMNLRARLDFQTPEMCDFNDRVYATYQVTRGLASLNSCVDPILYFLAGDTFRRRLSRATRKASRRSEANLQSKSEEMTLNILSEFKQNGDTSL

What is called EC50 is the midpoint of the concentration-response curve. Consider `Nc1ncnc2c1ncn2[C@@H]1O[C@H](COP(=O)(O)OP(=O)(O)O)[C@@H](O)[C@H]1O` [ADP], for which the EC50 was determined as 4700 ± 800 nM in experiment [1] and 278 ± 42 nM in experiment [2].
As for `CSc1nc(N)c2ncn([C@H]3[C@H](O)[C@H](O)[C@]4(COP(=O)(O)OP(=O)(O)O)C[C@H]34)c2n1` [MRS2365, [[(1R,2R,3S,4R,5S)-4-[6-amino-2-(methylthio)-9H-purin-9-yl]-2,3-dihydroxybicyclo[3.1.0]hex-1-yl]methyl]diphosphoric acid mono ester trisodium salt], the response in experiment [3] was half-maximal at 4.5 ± 0.8 nM (EC50).
For the compound `CSc1nc(N)c2ncn([C@@H]3O[C@H](COP(=O)(O)OP(=O)(O)O)[C@@H](O)[C@H]3O)c2n1` [2-MeSADP], the EC50 in experiment [4] came to 37.8 ± 11.3 nM.
